Publication PMC8528049, “Expanding the scope of native chemical ligation – templated small molecule drug synthesis via benzanilide formation” (Chemical Science, 2021)

Target: non-phosphorylated Abl1 kinase (Homo sapiens, UniProt P00519)
Test: KdELECT assay (DiscoverX), dissociation constants with Abl1 kinase
Details: Dissociation constant (Kd) of complexes formed with Abl1 kinase, non-phosphorylated Abl1 kinase; calculated from quadruplicates; mean ± SD

non-phosphorylated Abl1 kinase, sequence (P00519 whole entry): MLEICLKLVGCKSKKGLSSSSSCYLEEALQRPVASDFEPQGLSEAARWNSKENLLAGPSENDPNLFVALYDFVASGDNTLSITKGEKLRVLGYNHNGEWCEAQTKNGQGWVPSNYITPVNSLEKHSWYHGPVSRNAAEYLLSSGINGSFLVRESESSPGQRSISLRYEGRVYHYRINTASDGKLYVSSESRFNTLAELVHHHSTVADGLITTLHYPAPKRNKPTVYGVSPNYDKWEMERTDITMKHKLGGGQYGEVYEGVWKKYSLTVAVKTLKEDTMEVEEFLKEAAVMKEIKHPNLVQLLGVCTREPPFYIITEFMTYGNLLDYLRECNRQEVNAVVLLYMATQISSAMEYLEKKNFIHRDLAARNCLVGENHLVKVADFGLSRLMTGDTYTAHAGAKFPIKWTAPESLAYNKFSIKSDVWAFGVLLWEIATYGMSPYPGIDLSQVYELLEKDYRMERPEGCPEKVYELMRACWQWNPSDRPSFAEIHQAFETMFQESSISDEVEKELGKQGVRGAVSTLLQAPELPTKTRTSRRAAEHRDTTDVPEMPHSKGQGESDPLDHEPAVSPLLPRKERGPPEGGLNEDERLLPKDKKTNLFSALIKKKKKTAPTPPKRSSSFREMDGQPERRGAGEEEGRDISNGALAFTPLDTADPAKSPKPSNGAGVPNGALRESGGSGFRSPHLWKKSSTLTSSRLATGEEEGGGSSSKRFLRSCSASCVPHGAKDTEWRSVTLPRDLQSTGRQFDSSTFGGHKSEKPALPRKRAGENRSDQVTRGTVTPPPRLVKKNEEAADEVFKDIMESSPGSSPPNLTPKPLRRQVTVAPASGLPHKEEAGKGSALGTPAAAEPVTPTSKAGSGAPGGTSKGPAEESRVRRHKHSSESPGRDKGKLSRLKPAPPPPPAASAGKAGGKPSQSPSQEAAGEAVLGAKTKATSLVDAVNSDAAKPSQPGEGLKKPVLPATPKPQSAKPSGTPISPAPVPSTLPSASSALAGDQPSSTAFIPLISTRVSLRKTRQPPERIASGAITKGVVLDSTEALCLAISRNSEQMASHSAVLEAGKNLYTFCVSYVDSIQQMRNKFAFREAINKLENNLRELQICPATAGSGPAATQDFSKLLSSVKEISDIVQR

Row | SMILES | Kd
1 | Cc1cn(-c2cc(C(F)(F)F)cc(NC(=O)c3ccc(C)c(Nc4nccc(-c5cccnc5)n4)c3)c2S)cn1 [Nilotinib-SH (1a)] | 881 ± 151 nM
2 | Cc1ccc(C(=O)Nc2ccc(CN3CCN(C)CC3)c(C(F)(F)F)c2)cc1C#Cc1cnc2[nH]ncc2c1 [GZD824 (3), GZD824, reference compound] | 0.6 ± 0.3 nM
3 | Cc1ccc(C(=O)Nc2cc(C(F)(F)F)c(CN3CCN(C)CC3)cc2S)cc1C#Cc1cnc2[nH]ncc2c1 [GZD824-SH (3a)] | 0.9 ± 0.4 nM

Continued, values first:

Row | Kd | SMILES
4 | 0.6 nM | Cc1ccc(C(=O)Nc2cc(C(F)(F)F)c(CN3CCN(C)CC3)cc2S)cc1C#Cc1cnc2cccnn12 [Ponatinib-SH (2a)]
5 | 8.4 ± 2.3 nM | Cc1ccc(-c2nc3cc(C(F)(F)F)c(CN4CCN(C)CC4)cc3s2)cc1C#Cc1cnc2cccnn12 [Ponatinib-BT (2b)]

Same assay, conditions: Kd, Replicate 1, non-phosphorylated Abl1 kinase; single replicate 1, Hill equation

Row | SMILES | Kd
6 | Cc1cn(-c2cc(C(F)(F)F)cc(NC(=O)c3ccc(C)c(Nc4nccc(-c5cccnc5)n4)c3)c2S)cn1 [Nilotinib-SH (1a)] | 1140 nM
7 | Cc1ccc(C(=O)Nc2ccc(CN3CCN(C)CC3)c(C(F)(F)F)c2)cc1C#Cc1cnc2[nH]ncc2c1 [GZD824 (3), GZD824, reference compound] | 1 nM
8 | Cc1ccc(C(=O)Nc2cc(C(F)(F)F)c(CN3CCN(C)CC3)cc2S)cc1C#Cc1cnc2[nH]ncc2c1 [GZD824-SH (3a)] | 1.2 nM

Further lines, results first:

Row | Kd | SMILES
9 | 0.5 nM | Cc1ccc(C(=O)Nc2cc(C(F)(F)F)c(CN3CCN(C)CC3)cc2S)cc1C#Cc1cnc2cccnn12 [Ponatinib-SH (2a)]
10 | 11.6 nM | Cc1ccc(-c2nc3cc(C(F)(F)F)c(CN4CCN(C)CC4)cc3s2)cc1C#Cc1cnc2cccnn12 [Ponatinib-BT (2b)]

Same assay, conditions: Kd, Replicate 2, non-phosphorylated Abl1 kinase; single replicate 2, Hill equation

Row | SMILES | Kd
11 | Cc1cn(-c2cc(C(F)(F)F)cc(NC(=O)c3ccc(C)c(Nc4nccc(-c5cccnc5)n4)c3)c2S)cn1 [Nilotinib-SH (1a)] | 793 nM
12 | Cc1ccc(C(=O)Nc2ccc(CN3CCN(C)CC3)c(C(F)(F)F)c2)cc1C#Cc1cnc2[nH]ncc2c1 [GZD824 (3), GZD824, reference compound] | 0.7 nM
13 | Cc1ccc(C(=O)Nc2cc(C(F)(F)F)c(CN3CCN(C)CC3)cc2S)cc1C#Cc1cnc2[nH]ncc2c1 [GZD824-SH (3a)] | 1.4 nM

Further lines, results first:

Row | Kd | SMILES
14 | 0.7 nM | Cc1ccc(C(=O)Nc2cc(C(F)(F)F)c(CN3CCN(C)CC3)cc2S)cc1C#Cc1cnc2cccnn12 [Ponatinib-SH (2a)]
15 | 9.5 nM | Cc1ccc(-c2nc3cc(C(F)(F)F)c(CN4CCN(C)CC4)cc3s2)cc1C#Cc1cnc2cccnn12 [Ponatinib-BT (2b)]

Same assay, conditions: Kd, Replicate 3, non-phosphorylated Abl1 kinase; single replicate 3, Hill equation

Row | SMILES | Kd
16 | Cc1cn(-c2cc(C(F)(F)F)cc(NC(=O)c3ccc(C)c(Nc4nccc(-c5cccnc5)n4)c3)c2S)cn1 [Nilotinib-SH (1a)] | 791 nM
17 | Cc1ccc(C(=O)Nc2ccc(CN3CCN(C)CC3)c(C(F)(F)F)c2)cc1C#Cc1cnc2[nH]ncc2c1 [GZD824 (3), GZD824, reference compound] | 0.3 nM
18 | Cc1ccc(C(=O)Nc2cc(C(F)(F)F)c(CN3CCN(C)CC3)cc2S)cc1C#Cc1cnc2[nH]ncc2c1 [GZD824-SH (3a)] | 0.5 nM

Now from value to compound:

Row | Kd | SMILES
19 | 0.6 nM | Cc1ccc(C(=O)Nc2cc(C(F)(F)F)c(CN3CCN(C)CC3)cc2S)cc1C#Cc1cnc2cccnn12 [Ponatinib-SH (2a)]
20 | 6.4 nM | Cc1ccc(-c2nc3cc(C(F)(F)F)c(CN4CCN(C)CC4)cc3s2)cc1C#Cc1cnc2cccnn12 [Ponatinib-BT (2b)]

Same assay, conditions: Kd, Replicate 4, non-phosphorylated Abl1 kinase; single replicate 4, Hill equation

Row | SMILES | Kd
21 | Cc1cn(-c2cc(C(F)(F)F)cc(NC(=O)c3ccc(C)c(Nc4nccc(-c5cccnc5)n4)c3)c2S)cn1 [Nilotinib-SH (1a)] | 797 nM
22 | Cc1ccc(C(=O)Nc2ccc(CN3CCN(C)CC3)c(C(F)(F)F)c2)cc1C#Cc1cnc2[nH]ncc2c1 [GZD824 (3), GZD824, reference compound] | 0.4 nM
23 | Cc1ccc(C(=O)Nc2cc(C(F)(F)F)c(CN3CCN(C)CC3)cc2S)cc1C#Cc1cnc2[nH]ncc2c1 [GZD824-SH (3a)] | 0.5 nM

Other lines, results leading:

Row | Kd | SMILES
24 | 0.6 nM | Cc1ccc(C(=O)Nc2cc(C(F)(F)F)c(CN3CCN(C)CC3)cc2S)cc1C#Cc1cnc2cccnn12 [Ponatinib-SH (2a)]
25 | 6.2 nM | Cc1ccc(-c2nc3cc(C(F)(F)F)c(CN4CCN(C)CC4)cc3s2)cc1C#Cc1cnc2cccnn12 [Ponatinib-BT (2b)]

Tested on: K562 cells
Test: alamarBlue cell viability assay on K562 cells
Assay type: cell-based
Details: Homo sapiens, 96 h, single replicate 1, read-out: IC50, Replicate 1
Description: Cell culture and cell viability assay
K562 cells were cultured in DMEM supplemented with 10% FCS, 4 mM glutamine, 100 U · mL-1 […]
assays , c e l ls were seeded on a 96-well plate (10000 cells/well), followed by the immediate addition of the test compounds (100 µL, serial dilutions in medium). Untreated cells were used as controls and complete medium without cells was used to determine the background signal o f the assay . Afte r […]
1:10, v:v, in PBS) was added to each well. […]
reader from PerkinElmer (Waltham, USA). IC 50 values were calculated from triplicates w it h a 1 3 -po i n t dose-response curve using the Hill equation. […]

Row | IC50 | SMILES
26 | 392 nM | Cc1ccc(C(=O)Nc2cc(C(F)(F)F)c(CN3CCN(C)CC3)cc2S)cc1C#Cc1cnc2cccnn12 [Ponatinib-SH (2a)]
27 | 3.5 nM | Cc1ccc(C(=O)Nc2ccc(CN3CCN(C)CC3)c(C(F)(F)F)c2)cc1C#Cc1cnc2cccnn12 [Ponatinib (2), Ponatinib, reference compound]
28 | 118 nM | Cc1ccc(-c2nc3cc(C(F)(F)F)c(CN4CCN(C)CC4)cc3s2)cc1C#Cc1cnc2cccnn12 [Ponatinib-BT (2b)]

Same assay, conditions: Homo sapiens, 96 h, single replicate 2, read-out: IC50, Replicate 2

Row | IC50 | SMILES
29 | 343 nM | Cc1ccc(C(=O)Nc2cc(C(F)(F)F)c(CN3CCN(C)CC3)cc2S)cc1C#Cc1cnc2cccnn12 [Ponatinib-SH (2a)]
30 | 3.6 nM | Cc1ccc(C(=O)Nc2ccc(CN3CCN(C)CC3)c(C(F)(F)F)c2)cc1C#Cc1cnc2cccnn12 [Ponatinib (2), Ponatinib, reference compound]
31 | 115 nM | Cc1ccc(-c2nc3cc(C(F)(F)F)c(CN4CCN(C)CC4)cc3s2)cc1C#Cc1cnc2cccnn12 [Ponatinib-BT (2b)]

Same assay, conditions: Homo sapiens, 96 h, single replicate 3, read-out: IC50, Replicate 3

Row | IC50 | SMILES
32 | 326 nM | Cc1ccc(C(=O)Nc2cc(C(F)(F)F)c(CN3CCN(C)CC3)cc2S)cc1C#Cc1cnc2cccnn12 [Ponatinib-SH (2a)]
33 | 3.1 nM | Cc1ccc(C(=O)Nc2ccc(CN3CCN(C)CC3)c(C(F)(F)F)c2)cc1C#Cc1cnc2cccnn12 [Ponatinib (2), Ponatinib, reference compound]
34 | 126 nM | Cc1ccc(-c2nc3cc(C(F)(F)F)c(CN4CCN(C)CC4)cc3s2)cc1C#Cc1cnc2cccnn12 [Ponatinib-BT (2b)]

Same assay, conditions: Homo sapiens, 96 h treatment, calculated from triplicates, read-out: IC50 on K562 cells, determined by alamarBlue assay

Row | IC50 | SMILES
35 | 354 ± 28 nM | Cc1ccc(C(=O)Nc2cc(C(F)(F)F)c(CN3CCN(C)CC3)cc2S)cc1C#Cc1cnc2cccnn12 [Ponatinib-SH (2a)]
36 | 3.4 ± 0.2 nM | Cc1ccc(C(=O)Nc2ccc(CN3CCN(C)CC3)c(C(F)(F)F)c2)cc1C#Cc1cnc2cccnn12 [Ponatinib (2), Ponatinib, reference compound]
37 | 120 ± 5 nM | Cc1ccc(-c2nc3cc(C(F)(F)F)c(CN4CCN(C)CC4)cc3s2)cc1C#Cc1cnc2cccnn12 [Ponatinib-BT (2b)]

Tested on: Bcr–Abl
Test: not given
Details: cited from earlier work

Row | SMILES | IC50 for inhibition of kinases such as Bcr–Abl
38 | Cc1cn(-c2cc(NC(=O)c3ccc(C)c(Nc4nccc(-c5cccnc5)n4)c3)cc(C(F)(F)F)c2)cn1 [Nilotinib (1), Nilotinib] | low nanomolar range
39 | Cc1ccc(C(=O)Nc2ccc(CN3CCN(C)CC3)c(C(F)(F)F)c2)cc1C#Cc1cnc2[nH]ncc2c1 [GZD824 (3), GZD824, reference compound] | low nanomolar range
